For orientation: Km means the concentration of substrate that gives half-maximal velocity. A word on the Kd: it is the free concentration of one partner at which half of the binding sites on the other are occupied at equilibrium, for simple one-to-one binding. The term kcat denotes the number of substrate molecules converted per active site and unit of time at saturation. As a reminder, the kcat/Km is the second-order rate constant that governs catalysis at low substrate concentration.

The target of data set [1] is T1, human UMP-CMP kinase (hUCK) (Homo sapiens, UniProt P30085).
T1 sequence (P30085 1-196): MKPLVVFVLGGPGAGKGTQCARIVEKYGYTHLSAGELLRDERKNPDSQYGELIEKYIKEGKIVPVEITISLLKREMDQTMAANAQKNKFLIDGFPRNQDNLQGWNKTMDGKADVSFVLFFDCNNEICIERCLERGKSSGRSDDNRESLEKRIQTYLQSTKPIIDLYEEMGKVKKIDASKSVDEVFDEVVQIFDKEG
In words: coupled spectrophotometric NMP kinase assay, hUCK. The format is biochemical. The note with it: for Km: 37°C, 1 mM ATP; for Relative Vmax: relative to kcat of D-CMP (100 = kcat 130 s^−1).

In data set [2] the target is T2, human AMP kinase 1 (hAK1, cytosolic adenylate kinase) (Homo sapiens, UniProt P00568).
T2 sequence (P00568 1-194): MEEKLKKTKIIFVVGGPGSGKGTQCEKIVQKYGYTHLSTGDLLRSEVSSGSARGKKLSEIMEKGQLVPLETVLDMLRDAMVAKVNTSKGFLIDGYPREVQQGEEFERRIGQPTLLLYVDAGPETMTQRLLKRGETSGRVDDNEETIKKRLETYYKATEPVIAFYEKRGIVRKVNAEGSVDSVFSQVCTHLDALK
In words: coupled spectrophotometric NMP kinase assay, hAK1. The format is biochemical. The note with it: for Km: hAK1, 37°C, 1 mM ATP, – = Non detectable; for phosphorylation (in words): hAK1.

Data set [3] has as its target human AMP kinase 2 (hAK2, mitochondrial adenylate kinase) (Homo sapiens, UniProt P54819). In words: coupled spectrophotometric NMP kinase assay, hAK2. As to conditions: for Km: hAK2, 37°C, 1 mM ATP, – = Non detectable; for phosphorylation (in words): hAK2.
For data set [4], the target named is T3, human dTMP kinase (hTMPK) (Homo sapiens, UniProt P23919).
T3 sequence (P23919 1-212): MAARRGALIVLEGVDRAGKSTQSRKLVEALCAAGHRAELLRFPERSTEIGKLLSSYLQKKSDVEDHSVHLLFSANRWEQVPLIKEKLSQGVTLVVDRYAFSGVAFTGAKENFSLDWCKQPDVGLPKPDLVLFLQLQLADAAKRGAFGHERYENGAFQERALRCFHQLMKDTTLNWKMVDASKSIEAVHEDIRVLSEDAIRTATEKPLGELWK
Put plainly: coupled spectrophotometric NMP kinase assay, hTMPK. The format is biochemical.

The test system of another data set is hdCK. As to conditions: first phosphorylation of L-dT by hdCK; cited from earlier work.
The target of another data set is T4, hTMPK (Homo sapiens, UniProt P23919).
T4 sequence (P23919 1-212): T3 sequence (P23919 1-212)
Put plainly: fluorescence competition assay with MABA-dTDP. The format is binding.

The test system of the next data set is hTK2. The note with it: first phosphorylation of L-dT by hTK2; cited from earlier work.
In data set [5] the target is T1, human UMP-CMP kinase (hUCK). The note with it: cited from earlier work.
Another data set relates to phosphoglycerate kinase. The note with it: conversion of L-dTDP into L-dTTP; cited from earlier work.
For data set [6], the system named is chronic B hepatitis virus load. The note with it: woodchuck, in vivo; less efficiently than L-dC or L-dT; cited from earlier work.
Data set [7] concerns Nc1ncnc2c1ncn2[C@@H]1C[C@@H](O)[C@H](COP(=O)(O)O)O1. In words: purified protein, by the assay type. As to conditions: other: hAK2; – = Non detectable.
In data set [8] the test system is Nc1ccn(C2OC(COP(=O)(O)O)C(O)C2O)c(=O)n1. In words: purified protein, by the assay type. The note with it: other: hAK2, 37°C, 1 mM ATP; – = Non detectable; 37.0 °C.
[9] abbreviates: 2 mM ATP and 2 mM Mg^2+ (Figure 2).

Like-named read-outs stand apart in the source and are kept apart here.

As to `O=c1ccn([C@@H]2O[C@H](COP(=O)(O)O)[C@@H](O)[C@H]2O)c(=O)[nH]1` [D-UMP], in data set [1], the Michaelis-Menten constant (Km) came out at 50 ± 10 µM and the “Relative Vmax” value was determined as 100%. Besides, the Km in data set [2] turned out to be 6000 ± 2000 µM.

On to `Nc1ncnc2c1ncn2[C@H]1C[C@H](O)[C@@H](COP(=O)(O)O)O1` [D-dAMP], for which the Km in data set [2] was 1500 ± 300 µM; in data set [3], 210 ± 50 µM.

Consider `Nc1ncnc2c1ncn2[C@@H]1O[C@H](COP(=O)(O)O)[C@@H](O)[C@H]1O` [D-AMP], for which the Km was 140 ± 20 µM in [2] and 80 ± 20 µM in data set [3].

Consider `[N-]=[N+]=N[C@@H]1[C@H](O)[C@@H](COP(=O)(O)O)O[C@H]1n1ccc(=O)[nH]c1=O` [N3-D-dUMP], for which, in data set [1], the “substrate inhibition at high concentration (in words)” value was “did not give rise to substrate inhibition”, the Km was determined as 900 ± 200 µM and the “Relative Vmax” value came to 89 ± 6%. Moreover, the “phosphorylation (in words)” value in data set [2] is on record as “did not significantly phosphorylate”. Moreover, the “phosphorylation (in words)” value in [4] is on record as “did not significantly phosphorylate”. For the same compound, the “phosphorylation (in words)” value in data set [3] is on record as “did not significantly phosphorylate”.

In the case of `Cc1cn([C@@H]2C[C@@H](O)[C@H](CO)O2)c(=O)[nH]c1=O` [L-dT, β-L-thymidine], the catalytic efficiency with hdCK is 16000 M⁻¹ s⁻¹; in the data set with hTK2, 1e+07 M⁻¹ s⁻¹. The Kd at hTMPK stood at 450 µM.

Turning to `Nc1ccn([C@@H]2CS[C@H](COP(=O)(O)O)O2)c(=O)n1` [L-3TCMP], the Km in data set [5] (for comparison) was 150 ± 20 µM. For the same compound, the “Relative Vmax” value in data set [5] (relative to D-CMP) was 27%.

Turning to `O=c1ccn([C@H]2C[C@H](O)[C@@H](COP(=O)(O)O)O2)c(=O)[nH]1` [D-dUMP], in [1], the Km worked out at 1300 ± 300 µM and the “Relative Vmax” value was determined as 5.1 ± 0.5%. Besides, on hTMPK (read-out: dissociation constant KD, calculated from IC50 with Equation (1)), the Kd is 150 µM. Further, the “phosphorylation (in words)” value in [2] is “not substrates”. In data set [4] (setting [9]), the Michaelis-Menten constant (Km) was found to be 170 ± 10 µM and the kcat was determined as 4.8 ± 0.6 s⁻¹. The “phosphorylation (in words)” value in data set [3] is “not substrates”.

With `Cc1cn(C2CC(O)C(COP(=O)(O)OP(=O)(O)O)O2)c(=O)[nH]c1=O` [L-dTDP], in the data set on phosphoglycerate kinase, the catalytic efficiency was 500 M⁻¹ s⁻¹.

Consider `Nc1ncnc2c1ncn2[C@@H]1C[C@@H](O)[C@H](CO)O1` [L-dA], for which, in data set [6], the “effect on virus load (in words)” value is listed as “reduced the virus load”.

Regarding “human AMP kinase 2 (hAK2, mitochondrial adenylate kinase) (Homo sapiens)”, the catalytic efficiency (kcat/Km) in data set [7] was found to be 70 M⁻¹ s⁻¹. Further, the Km in [8] turned out to be 6000 ± 1000 µM.

For `Nc1ccn([C@H]2C[C@H](O)[C@@H](COP(=O)(O)O)O2)c(=O)n1` [D-dCMP], in data set [1], the Km stood at 1000 ± 100 µM and the “Relative Vmax” value turned out to be 61 ± 4%. In [2], the “phosphorylation (in words)” value is “not substrates”. Moreover, in [3], the “phosphorylation (in words)” value is recorded as “not substrates”.
